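Grown in 96-well plates, cells were treated for 48 hours with each compound at five concentrations. Insufficient inhibition: endpoint recorded as highest concentration tested. Abbreviation: GI50, concentration required for 50% inhibition of growth.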 Calls of active or inactive are those of the source. Rule as the data show it: active = GI50 up to about 1.1 µM and inactive = higher.
Columns and labels:
Test in all cases: growth of human tumour cells (NCI), 48 h
[1] = tested on: CCRF-CEM
[2] = tested on: EKVX
[3] = tested on: HOP-92
[4] = tested on: OVCAR-4
[5] = tested on: 786-0
[6] = tested on: A498
[7] = tested on: A549
[8] = tested on: ACHN
[9] = tested on: CAKI-1
[10] = tested on: COLO 205
[11] = tested on: DU-145
[12] = tested on: HCC 2998
[13] = tested on: HCT-116
[14] = tested on: HCT-15
[15] = tested on: HL-60
[16] = tested on: HOP-62
[17] = tested on: HT-29
[18] = tested on: Hs-578T
[19] = tested on: IGROV-1
[20] = tested on: KM12
[21] = tested on: LOX IMVI
[22] = tested on: M14
[23] = tested on: MCF7
[24] = tested on: MDA-MB-231
[25] = tested on: MDA-MB-435
[26] = tested on: MDA-N
[27] = tested on: MOLT-4
[28] = tested on: Malme-3M
[29] = tested on: NCI-H226
[30] = tested on: NCI-H23
[31] = tested on: NCI-H460
[32] = tested on: NCI-H522
[33] = tested on: NCI/ADR-RES
[34] = tested on: OVCAR-3
[35] = tested on: OVCAR-5
[36] = tested on: OVCAR-8
[37] = tested on: PC-3
[38] = tested on: RXF 393
[39] = tested on: SF-268
[40] = tested on: SF-295
[41] = tested on: SF-539
[42] = tested on: SK-MEL-28
[43] = tested on: SK-MEL-2
[44] = tested on: SK-MEL-5
[45] = tested on: SK-OV-3
[46] = tested on: SN12C
[47] = tested on: SR
[48] = tested on: T47D
[49] = tested on: TK-10
[50] = tested on: U-251
[51] = tested on: UACC-257
[52] = tested on: UACC-62

`O=P(O)(O)OC1C(OP(=O)(O)O)C(OP(=O)(O)O)C(OP(=O)(O)O)C(OP(=O)(O)O)C1OP(=O)(O)O` (stereo unspecified) was tested, and the GI50 [1] was > 995 µM (inactive), the GI50 [2] was > 560 µM (inactive) and the GI50 [3] was > 923 µM (inactive). The GI50 [4] was > 875 µM (inactive).

In the case of `CC(=O)c1cc2ccccc2[n+]([O-])c1N`, the GI50 [5] is reported as > 100 µM (inactive), the GI50 [6] is reported as > 100 µM (inactive) and the GI50 [7] is reported as > 100 µM (inactive). For the same compound, the GI50 [8] was > 100 µM (inactive), the GI50 [9] was > 100 µM (inactive) and the GI50 [1] was > 100 µM (inactive). The GI50 [10] was > 100 µM (inactive), the GI50 [11] was > 100 µM (inactive) and the GI50 [2] was > 100 µM (inactive). The GI50 [12] was > 100 µM (inactive), the GI50 [13] was > 100 µM (inactive) and the GI50 [14] was over 100 µM. The GI50 [15] was > 100 µM (inactive), the GI50 [16] was > 100 µM (inactive) and the GI50 [3] was > 100 µM (inactive). The GI50 [17] was > 100 µM (inactive), the GI50 [18] was > 100 µM (inactive) and the GI50 [19] was > 100 µM (inactive). The GI50 [20] was > 100 µM (inactive), the GI50 [21] was > 100 µM (inactive) and the GI50 [22] was > 100 µM (inactive). The GI50 [23] was > 100 µM (inactive), the GI50 [24] was > 100 µM (inactive) and the GI50 [25] was > 100 µM (inactive). For the same compound, the GI50 [26] was > 100 µM (inactive), the GI50 [27] was > 100 µM (inactive) and the GI50 [28] was > 100 µM (inactive). For the same compound, the GI50 [29] was > 100 µM (inactive), the GI50 [30] was > 100 µM (inactive) and the GI50 [31] was > 100 µM (inactive). For the same compound, the GI50 [32] was > 100 µM (inactive), the GI50 [33] was > 100 µM (inactive) and the GI50 [34] was > 100 µM (inactive). The GI50 [4] was > 100 µM (inactive), the GI50 [35] was > 100 µM (inactive) and the GI50 [36] was > 100 µM (inactive). For the same compound, the GI50 [37] was > 100 µM (inactive), the GI50 [38] was > 100 µM (inactive) and the GI50 [39] was > 100 µM (inactive). The GI50 [40] was > 100 µM (inactive), the GI50 [41] was > 100 µM (inactive) and the GI50 [42] was > 100 µM (inactive). The GI50 [43] was > 100 µM (inactive), the GI50 [44] was > 100 µM (inactive) and the GI50 [45] was > 100 µM (inactive). For the same compound, the GI50 [46] was > 100 µM (inactive), the GI50 [47] was > 100 µM (inactive) and the GI50 [48] was > 100 µM (inactive). The GI50 [49] was > 100 µM (inactive), the GI50 [50] was > 100 µM (inactive) and the GI50 [51] was > 100 µM (inactive). For the same compound, the GI50 [52] was > 100 µM (inactive).
